“And” between values parts separate entries of the source, which are not always exact repeats. Equal values may be shown once.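 Tested at 5 concentrations; 48 h exposure; 96-well plates; endpoints linearly interpolated, else capped at highest concentration. GI50 is the concentration that inhibits growth by half. Definition used: TGI = concentration required for complete inhibition of growth.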
Legend:
Assay in all cases: DTP human tumour cell line panel, 48 h
A498 renal = test system: A498 renal
BT-549 breast = test system: BT-549 breast
HCT-116 colon = test system: HCT-116 colon
HCT-15 colon = test system: HCT-15 colon
SK-MEL-28 melanoma = test system: SK-MEL-28 melanoma
CAKI-1 renal = test system: CAKI-1 renal
U251 CNS = test system: U251 CNS
RXF 393 renal = test system: RXF 393 renal

Row | SMILES | GI50 (A498 renal) | TGI (A498 renal) | GI50 (BT-549 breast) | TGI (BT-549 breast) | GI50 (HCT-116 colon) | TGI (HCT-116 colon) | GI50 (HCT-15 colon) | TGI (HCT-15 colon) | GI50 (SK-MEL-28 melanoma) | TGI (SK-MEL-28 melanoma) | GI50 (CAKI-1 renal) | TGI (CAKI-1 renal) | GI50 (U251 CNS) | TGI (U251 CNS) | GI50 (RXF 393 renal) | TGI (RXF 393 renal)
1 | O=S(=O)(NCCNC/C=C/c1ccc(Br)cc1)c1cccc2cnccc12 | 8.86 µM and 11.8 µM | 23.8 µM and 25.1 µM | 3.09 µM and 7.89 µM | 12.7 µM and 21.6 µM | 7.6 µM and 11.2 µM | 22 µM and 24 µM | 11.2 µM and 11.4 µM | 27.3 µM and 25.5 µM | 7.33 µM and 11.2 µM | 20 µM and 25.4 µM | 4.15 µM and 9.99 µM | 18 µM and 27 µM | 9.55 µM and 13.8 µM | 23.9 µM and 26.7 µM | 3.37 µM and 9.08 µM | 15.6 µM and 22.3 µM
2 | Cc1ccc(C(=O)Nc2ccc(CN3CCN(C)CC3)c(C(F)(F)F)c2)cc1C#Cc1cnc2cccnn12 | 0.299 µM and 0.47 µM | 1.07 µM and 1.85 µM | 1.15 µM and 2.57 µM | 2.45 µM and 5.19 µM | 0.235 µM and 0.464 µM | 1.05 µM and 3.43 µM | 0.313 µM and 0.501 µM | 1.27 µM and 3.42 µM | 0.367 µM and 0.742 µM | 1.51 µM and 3.7 µM | 0.274 µM and 0.388 µM | 1.09 µM and 1.82 µM | 0.473 µM and 1.22 µM | 1.68 µM and 3.94 µM | 0.224 µM and 0.53 µM | 0.972 µM and 2.21 µM
3 | Cc1cc(N/N=C/c2nc(-c3ccc(Br)cc3)oc2C)c2cc(Cl)ccc2n1 | > 100 µM | > 100 µM | > 100 µM | > 100 µM | > 100 µM | > 100 µM | > 100 µM | > 100 µM | > 100 µM | > 100 µM | > 100 µM | > 100 µM | > 100 µM | > 100 µM | > 100 µM | > 100 µM
4 | C/C(=N\Nc1ccc2ccccc2n1)c1ccccn1 | 0.239 µM | 2.48 µM | 0.256 µM | 16.6 µM | < 0.0472 µM | 3.03 µM |  | 5.72 µM | 0.345 µM | 16.2 µM |  | 0.59 µM | 0.0462 µM | 1.48 µM | 0.229 µM | 5.86 µM
5 | CCN1CCC(CCOC)(CN2c3ccccc3Sc3ccc(Cl)cc32)C1 (stereo not drawn) | 1.95 µM | 7.39 µM | 1.88 µM | 3.68 µM | 1.86 µM | 3.32 µM | 2.04 µM | 4.26 µM | 1.97 µM | 3.62 µM | 1.64 µM | 3.11 µM | 1.89 µM | 3.64 µM | 1.77 µM | 4.03 µM
6 | COc1ccc2cc(-c3ccoc(=O)c3-c3cc(OC)c(OC)c(OC)c3)ccc2c1 | 0.0723 µM |  | 0.232 µM | > 100 µM | 0.044 µM |  | 0.059 µM | > 100 µM | 0.683 µM | > 100 µM | 0.0986 µM | > 100 µM | 0.112 µM | > 100 µM | 0.028 µM | > 100 µM
7 | O=C1C(=O)c2c(nc3ccc(Cl)cn23)-c2ccccc21 | 1.64 µM | 3.11 µM | 0.502 µM | 1.21 µM | 0.311 µM | 3.73 µM | 1.08 µM | 2.73 µM | 0.253 µM | 0.557 µM | 0.477 µM | 1.04 µM | 0.274 µM | 0.721 µM | 0.564 µM | 5.61 µM
8 | C=CC(=O)N1CCN(c2ccc3cccc(NC(=O)c4cnc(C)cn4)c3n2)CC1 | 0.388 µM | 4.19 µM | 2.31 µM | 21.6 µM | 2.36 µM | 20.1 µM | 2.08 µM | 24.6 µM | 7.88 µM | 20.5 µM | 0.555 µM | 11.5 µM | 3.85 µM | 36.4 µM | 1.45 µM | 9.46 µM
9 | C=CC(=O)Nc1cccc(C)c1Nc1cc(-c2cccnc2Cc2c(C)c(OC)cc(OC)c2C)ncn1 | 1.93 µM | 9.44 µM | 6.23 µM | 29.6 µM | 16.6 µM | 44.6 µM | 14.4 µM | 47.2 µM | 16.9 µM | 69.2 µM | 9.97 µM | > 100 µM | 6.26 µM | 30 µM | 2.52 µM | 7.89 µM
10 | O=C(c1ccccc1)C(CN1CCOCC1)c1ccccc1 (stereo not drawn) | 2.49 µM | 11.2 µM | 1.48 µM | 3.77 µM | 0.609 µM | 2.08 µM | 0.641 µM | 2.21 µM | 1.76 µM | 3.35 µM | 0.565 µM | 1.95 µM | 1.71 µM | 4.09 µM | 1.8 µM | 3.36 µM
11 | COc1cccc(NC(=O)c2sc3nc4c(cc3c2N)CN(Cc2ccccc2)CC4)c1 | 3.82 µM | 24.4 µM | 2.83 µM | 26.2 µM | 1.74 µM | > 100 µM | 0.93 µM | > 100 µM | 2.8 µM | 29.7 µM | 11.7 µM | > 100 µM | 2.74 µM | 19.2 µM | 2.71 µM | 12.9 µM
12 | CN(C)CCCN1c2ccccc2CCc2ccc(Cl)cc21 | 5.47 µM | 19.4 µM | 10.4 µM | 22.2 µM | 3.53 µM | 12.3 µM | 3.35 µM | 12.1 µM | 1.61 µM | 3.07 µM | 3.88 µM | 16.8 µM | 3.8 µM | 14.7 µM | 2 µM | 7.66 µM

Source: PubChem BioAssay (NCI)
